“Also recorded” adds a separate entry of the source.
Key:
[1] = tested on: splenocytes of WT-vaccinated HLA-A2 tg mice; assay type: cell-based, mouse; design: key to response compared with WT peptide control, mouse splenocytes: *: Lower response than WT peptide
[2] = tested on: CD8+ T cells of HLA-A2+ human donors; assay type: cell-based
HLA-A*0201 = biological target: T1, HLA-A*0201 (Homo sapiens, UniProt P04439, D140Y/D185E/D98H/E176V/E277Q/G131W/G231S/I119V/I121R/I166T/I218V/L300P/L318F/N151K/N90K/P208A/P217A/Q86G/Q94H/R138H/R169H/T345S); assay type: binding
T1 construct: Soluble MHC was dissolved in PBS containing 0.5 mg/ml bovine γ-globulin; made in house

HLA-A2 transgenic mice = settings: mouse, in vivo

Row | Substance | Mouse splenocytes (ex vivo assay), Average [1] | DC model: IFN-γ-positive CD8+ T cells, Average [2] | FP binding score, percentage inhibition of tracer peptide binding, 4h (HLA-A*0201) [%] | FP binding score, percentage inhibition of tracer peptide binding, 24h (HLA-A*0201) [%] | rank by T cell activation, mouse splenocytes [1] | T cell (IFN-γ) response of vaccinated HLA-A2 tg mice, restimulation not specified or both (HLA-A2 transgenic mice) | IFN-γ ELISpot response after restimulation with WT peptide (HLA-A2 transgenic mice; sc) | rank by T cell activation, DC model [2] | response compared with WT peptide control, mouse splenocytes [1]
1 | [3-PYRA]MLSTVLGV [N43] | 108 | 0.06 | 47 | 41 | – | – | – | – | –
2 | [3-PYRA]MYSDFHFI [F100] | 104 | – | 79 | 73 | Upper 3 | improved T cell responses; also recorded: higher homologous and heterologous responses | higher responses compared to WT-peptide vaccination; also recorded: higher IFN-γ responses than WT peptide-vaccinated mice | – | –
3 | FMYSDFHF[2-AOC] [F19] | 62 | 0.07 | 87 | 86 | – | – | – | Lower 3 | –
4 | [am-phg][CpALA]LGFVFTL [G27] | 35 | 0.1 | 92 | 91 | – | – | – | – | –
5 | F[2-AOC]YSDFHF[NLE] [F69] | 63 | 0.08 | 90 | 89 | – | – | – | Lower 3 | –
6 | NMLSTVLG[CpALA] [N122] | 128 | – | 65 | 60 | – | – | – | – | –
7 | F[2-AOC]LSTVLGV [N177] | 46 | 0.04 | 90 | 88 | – | – | – | – | –
8 | F[2-AOC]YSDFHF[CHA] [F48] | 61 | 0.11 | 93 | 92 | – | – | – | – | –
9 | [2-AOC]MLSTVLGV [N39] | 334 | 0.05 | 68 | 63 | – | – | – | – | –
10 | [3-THI]MLSTVLG[2-AOC] [N98] | 93 | 0.04 | 83 | 79 | – | – | – | – | –
11 | [3-THI][2-AOC]YSDFHFI [F102] | 96 | 0.06 | 92 | 91 | Upper 3 | – | – | Lower 3 | F102 ^*
12 | [OM-HS][2-AOC]LSTVLGV [N91] | 344 | – | 91 | 87 | – | – | – | – | –
13 | [3-PYRA]MLSTVLG[2-AOC] [N8] | 1 | 0.01 | 85 | 82 | Lower 3 | – | – | Lower 3 | –
14 | [am-phg]MYSDFHF[2-AOC] [F7] | 54 | 0.13 | 91 | 90 | Lower 3 | – | – | – | –
15 | FMYSDFHF[CSET] [F54] | 78 | 0.14 | 82 | 80 | – | – | – | Upper 3 | –
16 | N[2-AOC]LSTVLGV [N40] | 375 | 0.06 | 71 | 67 | Upper 3 | – | – | – | N40 ^*
17 | [NLE]MLSTVLGV [N52] | 341 | 0.03 | 54 | 46 | – | – | – | – | –
